These results are taken from patent publication US9227923B2, “Pesticidal carboxamides” (Bayer Intellectual Property GmbH, priority 2009, dated 2016).

Holding throughout (format): in vivo
Assay [1] deals with Tobacco Cutworm (Spodoptera litura) Larvae. As to the kind of experiment: Test against tobacco cutworm (Spodoptera litura) larvae, leaf dip. Particulars: active compound concentration of 100 ppm; third instar larvae; after 7 days. The essentials:
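Sweet potato leaves were dipped in the test solution (DMF solvent, polyoxyethylene alkyl phenyl ether emulsifier), air-dried and offered to ten third-instar larvae per dish at 25 °C, with fresh leaves added on days 2 and 4. Mortality was counted at day 7 and expressed as % insecticidal activity (100% = all dead).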

The test system of assay [2] is Cucurbit Leaf Beetle (Aulacophora Femoralis). As to the kind of experiment: Test against cucurbit leaf beetle (Aulacophora femoralis), leaf dip. Particulars: active compound concentration of 100 ppm; second instar larvae; after 7 days. The method, then: (§1) Solvent: 3 parts by weight of dimethylformamide
(§2) Emulsifier: 1 part by weight of polyoxyethylene alkyl phenyl ether
Leaves of cucumber were immersed in the test solution at the appropriate concentration, and the leaves were dried in air. The leaves were then put in a plastic cup containing sterilized black soil and five Aulacophora femoralis at second instar larvae were released in the cup. The cups were placed in a temperature-controlled chamber at 25° C. After 7 days, the number of dead larvae was counted, and thus the insecticidal activity was calculated. An insecticidal activity of 100% means that all larvae were killed, whereas an insecticidal activity of 0% means that no larva was killed.

In assay [3] the test system is Two-Spotted Spider Mite (Tetranychus Urticae). The experiment in a line: Test against two-spotted spider mite (Tetranychus urticae), spray. Particulars: active compound concentration of 100 ppm; adult mites; after 7 days.
Description: as §1, §2

For `CSCC(=O)NCc1ccc(C(=O)Nc2c(Cl)cc(C(F)(C(F)(F)F)C(F)(F)C(F)(F)F)cc2Cl)cc1Cl` (centres unmarked) [Compound 5-331], the insecticidal activity in assay [1] and in assay [2] was 100% throughout. Further, in assay [3], the acaricidal activity was determined as 100%.

For the compound `CCc1cc(C(F)(C(F)(F)F)C(F)(F)F)cc(C)c1NC(=O)c1cc(F)c(CNC(C)=O)cc1F` [Compound 5-58], the insecticidal activity in assay [1] and in assay [2] was 100% throughout. Further, the acaricidal activity in assay [3] is reported as 100%.

The compound `CCc1cc(C(F)(C(F)(F)F)C(F)(F)F)cc(C)c1NC(=O)c1ccc(CN(C)C(=O)CC(F)(F)F)cc1` [Compound 5-188] registered an insecticidal activity in assay [1] of 100%. Further, in assay [3], the acaricidal activity was found to be 100%.

For `CCC(=O)NCc1ccc(C(=O)Nc2c(C)cc(C(F)(C(F)(F)F)C(F)(F)F)cc2CC)cc1Cl` [Compound 5-78], the insecticidal activity in assay [1] and in assay [2] was 100% throughout. The acaricidal activity in assay [3] is 100%.

In assay [1], `CCc1cc(C(F)(C(F)(F)F)C(F)(F)F)cc(C)c1NC(=O)c1ccc2c(c1)CCC2NC(=O)CC1CC1` (centres unmarked) [Compound 10-5] came in with an insecticidal activity of 100%. In assay [3], this compound showed an acaricidal activity of 100%.

As for `Cc1cc(C(F)(C(F)(F)F)C(F)(F)F)cc(OC(F)F)c1NC(=O)c1ccc(CNC(=O)CC2CC2)c(Cl)c1` [Compound 5-340], the insecticidal activity in assay [1] stood at 100%. Besides, the acaricidal activity in assay [3] was determined as 100%.

For `CCc1cc(C(F)(C(F)(F)F)C(F)(F)C(F)(F)F)cc(C)c1NC(=O)c1ccc(CNC(=O)CC(F)(F)F)c(F)c1` (centres unmarked) [Compound 5-148], the insecticidal activity in assay [1] and in assay [2] was 100% throughout. In addition, the acaricidal activity in assay [3] is 100%.

`CCC(=O)NCc1ccc(C(=O)Nc2c(C)cc(C(F)(C(F)(F)F)C(F)(F)F)cc2CC)cc1` [Compound 5-29] registered an insecticidal activity in assay [1] of 100%. Moreover, the acaricidal activity in assay [3] is listed as 100%.

As to `CCC(=O)NCc1ccc(C(=O)Nc2c(Cl)cc(C(F)(C(F)(F)F)C(F)(F)C(F)(F)F)cc2Cl)cc1Cl` (racemic) [Compound 5-243], the insecticidal activity in assay [1] and in assay [2] was 100% in each case. Also, the acaricidal activity in assay [3] is given as 100%.

`CCc1cc(C(F)(C(F)(F)F)C(F)(F)F)cc(C)c1NC(=O)c1ccc(CNC(=O)c2cccnc2F)c(C)c1` [Compound 5-103]: the insecticidal activity in assay [1] and in assay [2] was 100% each time. Further, in assay [3], the acaricidal activity stood at 100%.

For `Cc1cc(C(F)(C(F)(F)F)C(F)(F)F)cc(OC(F)F)c1NC(=O)c1ccc(C#N)cc1Cl` [Compound I-12], the insecticidal activity in assay [1] and in assay [2] was 100% in each case. This compound also had an acaricidal activity in assay [3] of 100%.

As to `CCc1cc(C(F)(C(F)(F)F)C(F)(F)C(F)(F)F)cc(C)c1NC(=O)c1ccc(CNC(=O)CC2CC2)c(Cl)c1` (centres unmarked) [Compound 5-153], the insecticidal activity in assay [1] was determined as 100%. The acaricidal activity in assay [3] worked out at 100%.

`Cc1cc(C(F)(C(F)(F)F)C(F)(F)F)cc(OC(F)F)c1NC(=O)c1ccc(CNC(=O)C2CC2)c(Cl)c1` [Compound 5-341]: the insecticidal activity in assay [1] and in assay [2] was 100% each time. For the same compound, the acaricidal activity in assay [3] is given as 100%.

For the compound `CCc1cc(C(F)(C(F)(F)F)C(F)(F)C(F)(F)F)cc(C)c1NC(=O)c1ccc(CNC(C)=O)c(Cl)c1` (centres unmarked) [Compound 5-150], the insecticidal activity in assay [1] and in assay [2] was 100% in each case. Besides, the acaricidal activity in assay [3] came to 100%.

Consider `CC(=O)NCc1ccc(C(=O)Nc2c(Cl)cc(C(F)(C(F)(F)F)C(F)(F)C(F)(F)F)cc2Cl)cc1Cl` (racemic) [Compound 5-242], for which the insecticidal activity in assay [1] and in assay [2] was 100% each time. This compound displayed an acaricidal activity in assay [3] of 100%.

Turning to `CCc1cc(C(F)(C(F)(F)F)C(F)(F)C(F)(F)F)cc(C)c1NC(=O)c1ccc(CNC(=O)CC(F)(F)F)c(Cl)c1` (centres unmarked) [Compound 5-154], the insecticidal activity in assay [1] and in assay [2] was 100% throughout. The compound also displayed an acaricidal activity in assay [3] of 100%.

Regarding `CCC(=O)NCc1ccc(C(=O)Nc2c(Cl)cc(C(F)(C(F)(F)F)C(F)(F)F)cc2Cl)cc1` [Compound 5-224], the insecticidal activity in assay [2] amounted to 100%. In assay [3], this compound showed an acaricidal activity of 100%.

Turning to `CCc1cc(C(F)(C(F)(F)F)C(F)(F)F)cc(C)c1NC(=O)c1ccc(CNC(=O)c2ccc(F)cc2)cc1` [Compound 5-36], the insecticidal activity in assay [1] and in assay [2] was 100% in each case. Moreover, the acaricidal activity in assay [3] is listed as 100%.

For the compound `CCc1cc(C(F)(C(F)(F)F)C(F)(F)Br)cc(C)c1NC(=O)c1ccc(CNC(C)=O)c(Cl)c1` (centres unmarked) [Compound 5-219], the insecticidal activity in assay [1] and in assay [2] was 100% each time. This compound showed an acaricidal activity in assay [3] of 100%.

`CCc1cc(C(F)(C(F)(F)F)C(F)(F)F)cc(C)c1NC(=O)c1ccc(CNC(=O)c2cccnc2F)cc1` [Compound 5-40] registered an insecticidal activity in assay [2] of 100%. The acaricidal activity in assay [3] stood at 100%.

`CCc1cc(C(F)(C(F)(F)F)C(F)(F)F)cc(C)c1NC(=O)c1ccc(CNC(=O)COC)c(Br)c1` [Compound 5-91] registered an insecticidal activity in assay [1] of 100%. The same compound registered an acaricidal activity in assay [3] of 100%.

In assay [1], `CCC(=O)NC1CCc2cc(C(=O)Nc3c(C)cc(C(F)(C(F)(F)F)C(F)(F)C(F)(F)F)cc3CC)ccc21` (centres unmarked) [Compound 10-10] registered an insecticidal activity of 100%. The compound further showed an acaricidal activity in assay [3] of 100%.

Turning to `CCc1cc(C(F)(C(F)(F)F)C(F)(F)F)cc(C)c1NC(=O)c1ccc(CNC(C)=O)cc1F` [Compound 5-44], in assay [2], the insecticidal activity was found to be 100%. Also, the acaricidal activity in assay [3] is reported as 100%.

`CCc1cc(C(F)(C(F)(F)F)C(F)(F)F)cc(C)c1NC(=O)c1ccc(CNC(=O)CC(F)(F)F)c(I)c1` [Compound 5-192] registered an insecticidal activity in assay [1] of 100%. In assay [3], the acaricidal activity is 100%.

With `CCc1cc(C(F)(C(F)(F)F)C(F)(F)F)cc(C)c1NC(=O)c1ccc(CNC(=O)c2cccnc2F)c(C(F)(F)F)c1` [Compound 5-112], the insecticidal activity in assay [1] amounted to 100%. In assay [3], this compound returned an acaricidal activity of 100%.

In turn, `CCc1cc(C(F)(C(F)(F)F)C(F)(F)F)cc(C)c1NC(=O)c1ccc2c(c1)CCCC2NC(C)=O` (centres unmarked) [Compound 11-2] showed an insecticidal activity in assay [1] of 100%. In assay [3], this compound had an acaricidal activity of 100%.

In assay [1], `CCc1cc(C(F)(C(F)(F)F)C(F)(F)F)cc(C)c1NC(=O)c1ccc(CNC(=O)CC(F)(F)F)c(C(F)(F)F)c1` [Compound 5-110] had an insecticidal activity of 100%. Further, the acaricidal activity in assay [3] amounted to 100%.

`CCc1cc(C(F)(C(F)(F)F)C(F)(F)F)cc(C)c1NC(=O)c1ccc(CNC(=O)CC2CC2)c(Cl)c1` [Compound 5-80] registered an insecticidal activity in assay [1] of 100%. For the same compound, in assay [3], the acaricidal activity is reported as 100%.

`CC(=O)NCc1ccc(C(=O)Nc2c(C)cc(C(F)(C(F)(F)F)C(F)(F)F)cc2Cl)cc1` [Compound 5-333]: the acaricidal activity in assay [3] is 100%.

The compound `CCc1cc(C(F)(C(F)(F)F)C(F)(F)F)cc(C)c1NC(=O)c1ccc(CNC(=O)CC(F)(F)F)cc1` [Compound 5-32] had an insecticidal activity in assay [1] of 100%. The acaricidal activity in assay [3] was 100%.

In the case of `CCc1cc(C(F)(C(F)(F)F)C(F)(F)Br)cc(C)c1NC(=O)c1ccc(CNC(=O)CC2CC2)c(Cl)c1` (centres unmarked) [Compound 5-319], the insecticidal activity in assay [1] is recorded as 100%. This compound gave an acaricidal activity in assay [3] of 100%.

In turn, `CCC(=O)NCc1ccc(C(=O)Nc2c(C)cc(C(F)(C(F)(F)F)C(F)(F)F)cc2CC)cc1F` [Compound 5-72] returned an insecticidal activity in assay [1] of 100%. The acaricidal activity in assay [3] is given as 100%.

Turning to `CCc1cc(C(F)(C(F)(F)F)C(F)(F)F)cc(C)c1NC(=O)c1ccc(CNC(=O)CC2CC2)c(Br)c1` [Compound 5-88], in assay [1], the insecticidal activity came to 100%. The same compound showed an acaricidal activity in assay [3] of 100%.

In assay [1], `CCc1cc(C(F)(C(F)(F)F)C(F)(F)F)cc(C)c1NC(=O)c1ccc(CNC(=O)c2cccnc2Cl)c(Br)c1` [Compound 5-94] had an insecticidal activity of 100%. The acaricidal activity in assay [3] is 100%.

In assay [3], `CCc1cc(C(F)(C(F)(F)F)C(F)(F)F)cc(C)c1NC(=O)c1ccc(CNC(=O)c2ccc(F)cc2)c(Br)c1` [Compound 5-92] returned an acaricidal activity of 100%.

`CCc1cc(C(F)(C(F)(F)F)C(F)(F)F)cc(C)c1NC(=O)c1ccc(CN(C)C(=O)CC2CC2)cc1` [Compound 5-187]: the acaricidal activity in assay [3] worked out at 100%.

Turning to `CCc1cc(C(F)(C(F)(F)F)C(F)(F)C(F)(F)F)cc(C)c1NC(=O)c1ccc(CNC(=O)CC2CC2)c(F)c1` (centres unmarked) [Compound 5-147], in assay [1], the insecticidal activity was found to be 100%. In assay [3], this compound yielded an acaricidal activity of 100%.

On to `CCc1cc(C(F)(C(F)(F)F)C(F)(F)F)cc(C)c1NC(=O)c1ccc(CNC(=O)CSC)cc1` [Compound 5-33], for which, in assay [3], the acaricidal activity turned out to be 100%.

In the case of `CCC(=O)N(C)Cc1ccc(C(=O)Nc2c(C)cc(C(F)(C(F)(F)F)C(F)(F)F)cc2CC)cc1` [Compound 5-186], the acaricidal activity in assay [3] turned out to be 100%.
